Data taken from US4431807A, “4-Methyl-5-(unsubstituted and substituted phenoxy)-6-methoxy-8-(aminoalkylamino)quinolines” (priority 1981, dated 1984).

Test: in vivo
Settings: guinea pig, po

COc1cc(NC(C)CCCN)c2nccc(C)c2c1Oc1cccc(C(F)(F)F)c1.O=C(O)CCC(=O)O (stereo not shown) [Compound 1, 8-(4-Amino-1-methylbutylamino)-6-methoxy-4-methyl-5-(3-trifluoromethylphenoxy)quinoline Succinate]
LD50: 174 mg/kg
